No end group written: not given here.
Legend:
[1] = tested on: E. coli (ATCC 25922); type: cell-based, Escherichia coli
Protocol: (§1) The antibacterial activities of the different peptides were determined by continuous monitoring of bacterial growth with a Bioscreen C microbiology reader (Labsystems Oy, Helsinki, Finland). The test was performed in 100-well flat-bottomed honeycomb plates, in which 50 μl of test fractions were incubated with 50 μl of a suspension of an actively growing culture of bacteria diluted in Mueller Hinton medium to a starting concentration of 3×10^4 cells per ml. […] [NT] 13032) and S. aureus (ATCC 9144), were chosen as test bacteria. […] Polymyxin B (Sigma, St.

[2] = tested on: C. glutamicum (ATCC 13032); type: cell-based, Corynebacterium glutamicum
Protocol: as §1

[3] = tested on: TNF-α; assay: Inhibition of LPS induced TNF-α response in THP-1 cells (ELISA); type: cell-based, human; details: Ratio TC50 (THP-1)/EC50 (anti-TNFα)
Protocol: FIG. 12. Antiinnflammatory response measured as inhibition of tumor necrosis factor alpha (TNF-α) response in THP-1 cells after stimulation with LPS. THP-1 cells (1×10^6 cells/ml) were treated with P17 derivates in different concentrations for 1 hour, and subsequently stimulated with 100 ng/ml LPS for 6 hours. LPS was used as control for induction of TNF-α. (set as 100% response), RPMI media was used as negative (non-stimulated) control, and cycloheximide (Chx, 10 μg/ml) was used as a an inhibitory control for LPS induced TNF-α. The data presented are the average of two parallells. (A) The effect of the peptides P17 HC and P17 HC (1-20). (B) The effect of the peptides P17 HC (11-20) and P17 HC-Br.
The THP-1 cells (ATCC, TIB-202) were maintained in suspension in RPMI-1640 medium with 25 mM HEPES and 2 mM Glutamax I supplemented with 10% FBS (growth medium) in a humidified atmosphere of 5% CO2 at 37° C. Cells to be used in the assay were grown to a density of 8×10^5-1×10^6 cells/ml. The cells were centrifuged for 7 min at 200 g and the cell pellet was resuspended to a concentration of 10^6 cells/ml in RPMI-1640 with 10% FBS.
To allow examination of antiinflammatory effects of the peptides on basal and stimulated cytokine production, peptide-treated macrophages were cultured in the presence of LPS and the levels of TNF-α were measured. The primary screening was based on a mammalian cell line; the human THP-1 line. This line is of monocyte/macrophage origin and responds to various stimuli by increased production of cytokines, like TNF-α and the IL-1β, (Wang et al. 2000). To induce monocyte-macrophage differentiation, THP-1 cells were cultured in 96-well culture plates (10^6 cells/well) in a volume of 100 μl RPMI 1640 medium, containing 50 ng/ml PMA (which is known to induce the maturation of monocytes) and incubated in a humidified atmosphere of 5% CO2, at 37° C. for 48 hours. The medium was then removed and the cells were washed with PBS, added 100 μl fresh medium (without PMA) and incubated for another 24 hours. Medium was removed and the adherent macrophages were treated with 100 μl of peptide solution (concentrations ranging from 0 to 400 μg/ml), diluted in RPMI-1640 medium with 25 mM HEPES and 2 mM Glutamax I, but without […] (assay medium). After incubation at 37° C. for 1 hour, the cells were added LPS (0.1 μg/ml) and further incubated for 6 hours. […] TNF-α concentrations were quantified by the Human TNF-α ELISA MAX kit (BioLegend), according to the manufacturer's instructions. Duplicate readings for each standard, control and sample were recorded. The average absorbance for each set of standards, controls, and samples was calculated using a standard curve. Concentrations were determined by extrapolation on the standard curve.

[4] = tested on: S. aureus (ATCC 9144); type: cell-based, Staphylococcus aureus; details: ATCC 9144
Protocol: as §1

[5] = tested on: human breast malignant carcinoma cell line MCF-7; type: cell-based; details: 24 h
Protocol: The cytotoxic effects of the peptides on different human tumour cells were measured using the MTT colorimetric assay (Mosmann, 1983). […] Dissolved MIT is converted to an insoluble purple formazan by cleavage of the tetrazolium ring by dehydrogenase enzymes. This water insoluble formazan can be solubilized using isopropanol or other solvents and the dissolved material is measured spectrophotometrically. The absorbance was measured as a function of concentration of converted dye. The conversion of the soluble dye to the insoluble purple formazan is utilized in assays for measurement of cell proliferation. […] We used this assay to measure the degree of cell death caused by the peptides. MCF-7 was maintained in EMEM, A2058 in DMEM and […]-29 in RPMI-1640 medium supplemented with 10% heat inactivated […] and 1% L-glutamine-L-alanine in a humidified atmosphere of 5% CO2 at 37° C. The human embryonic fibroblast cell line, MRC-5 (which is normal fibroblasts), was cultured as a monolayer in MEM medium, under the same conditions as described for the tumour cell lines. Cells to be used in the assay were grown to a minimum of 75% confluency, trypsinated and split to single cell suspension, counted and centrifuged at 1500 rpm for 10 min. The cell pellet was resuspended to a concentration of 2×10^5 cells/ml (HT-29) or 1×10^5 (MRC-5, MCF7 and A2058) in DMEM without FBS and L-glutamine-L-alanine (assay-medium). All cell lines were routinely tested for mycoplasma infection using a PCR-based mycoplasma detection kit (MycoSensor PCR Assay Kit, Stratagene), following the supplier's instructions. All cell lines were mycoplasma free. The cytotoxicity was measured using the MTT method (Mosmann, 1983), with minor modifications. Different human tumour cells (1-2×10^5) were applied in 96-well culture plates in a volume of 100 μl DMEM medium and incubated at 37° C. for 24 hours. The medium was removed and the cells were treated with 100 μl of peptide solution (concentrations ranging from 0 to 200 μg/ml), diluted in a) RPMI-1640 medium supplemented with 5% heat inactivated FBS, or b) RPMI-1640 medium without FBS. The plates were incubated at 37° C. for 24 hours. Cells treated with Triton X-100 (1%) was used as positive control (100% killing) whereas cells plus medium only were used as negative control. […] A volume of 70 μl of the supernatant was then removed and […] (0.04 M HCl in isopropanol) added to each well. The plate was placed on a shaker for 1 hour at room temperature and read spectrophotometrically at 590 nm in a microtiter plate reader (DTX880 Multimode Detector, Beckman Coulter).

[6] = tested on: Pseudomonas aeruginosa; type: cell-based
Protocol: as §1

[7] = tested on: Botrytis cinerea 101; details: 48 h
Protocol: (§2) The various derivates of P17 (brominated and non-brominated) were tested for their ability to inhibit fungal growth of the yeast strains Saccaharomyces cerevisiae sp, Candida albicans (ATCC 10231) and Rodotorula sp., and the filamentous strains Botrytis cinerea 101, Penicillium rogveforti, and Fusarium sp. All strains, except C. albicans, were a gift from Prof. A. Tronsmo (The Norwegian University of Life Sciences, Ås, Norway). The fungi were cultivated on potato dextrose agar, supplemented with 2% glucose, at room temperature. Before antifungal testing, the fungi were dissolved in potato dextrose broth (Difco) at half-strength. Cell concentration was determined and adjusted after counting in a Bürker chamber. The filamentous fungi were filtered through a piece of cotton before counting. An aliquot of 50 μl of fungal spores (final concentration 2×10^5 spores per ml) were inoculated in microtiter plates (96 wells) along with 50 μl peptide solution. Peptides, dissolved in distilled water, were tested at final concentrations (two-fold dilutions) ranging from 50 μM to 0.1 μM. Cultures were grown in the dark (without shaking) and with a moist chamber at 25° C. (37° C. for C. albicans). Growth inhibition was determined microscopically after 48 h of incubation. MIC was determined as the lowest concentration of peptide resulting in 50% inhibition of visible growth.

[8] = tested on: Saccharomyces cerevisiae; details: 48 h
Protocol: as §2

[9] = tested on: Candida albicans (ATCC 10231); details: ATCC 10231, 48 h
Protocol: as §2

## SHAVKSGIHA [P17 HC (11-20)]
[1]
  Minimal inhibitory concentration, E. coli: >100 µM
[2]
  Minimal inhibitory concentration, C. glutamicum: >100 µM
[3]
  Therapeutic index TC50/EC50: >2.2
[4]
  Minimal inhibitory concentration, S. aureus: >100 µM
[5]
  IC50: 103 µM
[6]
  Minimal inhibitory concentration, P. aeruginosa: >100 µM
[7]
  Minimal inhibitory concentration (MIC), Botrytis cinerea: >100 µM
[8]
  Minimal inhibitory concentration (MIC), Saccharomyces cerevisiae: >100 µM
[9]
  Minimal inhibitory concentration (MIC), Candida albicans: >100 µM
